Experimental data reported in patent US9359398B2, “Compounds for immunoproteasome inhibition” (Onyx Therapeutics, Inc., priority 2010, dated 2016).

Assays:
immunoproteasome (L7) = immunoproteasome (L7) (Homo sapiens, UniProt P28062); test: Enzyme kinetic assay of chymotrypsin-like (CT-L) activity, isolated 20S immunoproteasome prep; assay type: biochemical; conditions: for EC50 ratio (B5/L7): 20S ratio: EC50 constitutive / EC50 immunoproteasome, greater than one = prefers immunoproteasome
Description: (§1) This can be done using enzyme kinetic assays such as those disclosed in U.S. application Ser. No. 09/569,748, Example 2 and Stein et al., Biochem. […] A ratio of less than one denotes the molecule inhibits the CT-L activity of the constitutive proteasome better than that of the immunoproteasome. Ratios greater than one signifies the molecule inhibits chymotrypsin-like activity of the immunoproteasome better than that of the constitutive proteasome.

[1] = target: constitutive proteasome (B5) (Homo sapiens, UniProt P28074); test: Enzyme kinetic assay of chymotrypsin-like (CT-L) activity, isolated 20S constitutive proteasome prep; assay type: biochemical; conditions: isolated 20S proteasome prep with greater than 90% constitutive proteasome subunits
Description: as §1

Row | Compound | EC50 ratio (B5/L7) (immunoproteasome (L7)) | EC50 for constitutive proteasome (B5) [1] | EC50 for immunoproteasome (L7) (immunoproteasome (L7); CT-L activity, isolated 20S proteasome prep with greater than 90% immunoproteasome subunits)
1 | CC(C)C[C@H](NC(=O)[C@H](Cc1ccccc1)NC(=O)[C@H](CC(C)C)NC(=O)[C@H](CCc1ccccc1)NC(=O)CN1CCOCC1)B(O)O | 1.10 |  | 
2 | CC(C)C[C@H](NC(=O)[C@H](Cc1ccccc1)NC(=O)c1cnccn1)C(=O)[C@@]1(C)CO1 |  | Inactive | Inactive
3 | C[C@H](NC(=O)CN1CCOCC1)C(=O)N[C@@H](Cc1ccc(O)cc1)C(=O)N[C@@H](Cc1ccccc1)C(=O)[C@@]1(C)CO1 | 17.04 |  | 
4 | C[C@H](NC(=O)CN1CCOCC1)C(=O)N[C@@H](Cc1ccc(O)cc1)C(=O)N[C@@H](Cc1ccccc1)B(O)O | 18.34 |  | 
5 | C[C@@H](NC(=O)CN1CCOCC1)C(=O)N[C@@H](Cc1c[nH]c2ccccc12)C(=O)N[C@@H](Cc1ccccc1)C(=O)[C@@]1(C)CO1 | >>1.0 | Inactive | 
6 | C[C@@H](NC(=O)CN1CCOCC1)C(=O)N[C@@H](Cc1c[nH]c2ccccc12)C(=O)N[C@@H](Cc1ccccc1)B(O)O | 6.49 |  | 
